Data taken from patent US7491703B2, “Tetrapeptide regulating blood glucose level in diabetes mellitus” (“Access Bioscience” CJSC, priority 2003, dated 2009).
Residues, ends and D or L forms follow the SMILES beside them.

Tests used:
[1] = tested on: rats with alloxan diabetes; test: Course of alloxan diabetes in rats, treatment variant (Example 2); assay type: in vivo, rat; details: for decrease of the blood glucose level: throughout the whole study
Description: The study was conducted on 21 white mongrel male rats with average body weight 375±35 g. After estimation of glucose concentration in the blood all the animals were divided at random into 2 groups. Then all the animals were exposed to single intravenous administration 1 ml of alloxan solution (“Spofa”) in dose 35 mg/kg. In 15 days control animals were administered once a day intraperitoneally with 0.3 ml 0.9% NaCl solution, rats of the main group were administered with Lys-Glu-Asp-Trp-NH2 [SEQ ID NO:1] in dose 3 μg (in 0.3 ml of 0.9% NaCl solution) per rat during 11 days.

[2] = tested on: rats with alloxan diabetes; test: Insulin level in blood of alloxan diabetes rats (Example 5); assay type: in vivo, rat
Description: The experiment was held on 18 white mongrel rats weighing an average 375±35 g. After the estimation of the blood glucose level all the animals were divided at random into 2 groups. Then all the animals were subjected to single intravenous injection with 1 ml of alloxan solution (“Spofa”) in dose of 35 mg/kg. 15 days later control animals were daily intraperitoneally administered with 0.3 ml of 0.9% NaCl solution, rats of the main group—with tetrapeptide Lys-Glu-Asp-Trp-NH2 [SEQ ID NO:1] in dose of 3 μg (in 0.3 ml of 0.9% NaCl) per rat during 11 days.

[3] = 8 days since the onset of tetrapeptide administration, 3 μg per rat i.p. daily
[4] = 15 days after alloxan administration, before peptide

NCCCC[C@H](N)C(=O)N[C@@H](CCC(=O)O)C(=O)N[C@@H](CC(=O)O)C(=O)N[C@@H](Cc1c[nH]c2ccccc12)C(N)=O [Lys-Glu-Asp-Trp-NH2, lysyl-glutamyl-aspartyl-tryptophane amid] (H-KEDW-NH2)
Glucose Concentration in the blood ([1]; 1 day upon completion of peptide administration (3 μg per rat, 11 days)): 222.5 ± 10.3 mg % | Glucose Concentration in the blood [1, 3]: 254.5 ± 16.2 mg % | Glucose Concentration in the blood ([1]; 9 days upon completion of peptide administration): 183.9 ± 10.5 mg % | Glucose Concentration in the blood [1, 4]: 333.6 ± 12.4 mg % | Glucose Concentration in the blood ([1]; 18 days upon completion of peptide administration): 236.7 ± 10.3 mg % | Glucose Concentration in the blood ([1]; 28 days upon completion of peptide administration): 221.5 ± 11.2 mg % | Glucose Concentration in the blood ([1]; 44 days upon completion of peptide administration): 210.8 ± 9.3 mg % | Glucose Concentration in the blood ([1]; 58 days upon completion of peptide administration): 198.9 mg % | lethality ([1]; by the end of the investigation, 84 days after alloxan (control 70%)): 36.4% | Glucose Concentration in the blood ([1]; initial level, before alloxan and before peptide): 81.1 ± 3.8 mg % | decrease of the blood glucose level ([1]; overall figure): 38.4% | decrease of the blood glucose level ([1]; range in brackets): 30-47.7% | lethality decrease ([1]; versus control group): two-fold | animals alive ([2]; 70th day after alloxan administration (control 62.5%)): 70% | Insulin content in blood ([2]; 1 day after the completion of tetrapeptide administration): 3.6 ± 0.7 mkIU/ml | insulin content in the blood, higher than in the control group ([2]; 8 days of substance administration): 3.9 fold | Insulin content in blood [2, 3]: 3.1 ± 1.1 mkIU/ml | Insulin content in blood ([2]; 9 days after the completion of tetrapeptide administration): 3.2 ± 0.5 mkIU/ml | Insulin content in blood [2, 4]: 1.5 ± 0.4 mkIU/ml | Insulin content in blood ([2]; 18 days after the completion of tetrapeptide administration): 4.3 ± 0.5 mkIU/ml | Insulin content in blood ([2]; 28 days after the completion of tetrapeptide administration): 4.1 ± 0.6 mkIU/ml | Insulin content in blood ([2]; 44 days after the completion of tetrapeptide administration): 3.9 ± 1.1 mkIU/ml | amount of insulin in the blood ([2]; all the following estimations, no insulin in control animals): 13-18% | Insulin content in blood ([2]; initial level): 23.8 ± 2.8 mkIU/ml
